Patent US20250109165A1, “CYCLOPHILIN INHIBITORS AND USES THEREOF” (The Broad Institute, Inc., priority 2022, published 2025)

What was measured:
[1] = molecular target: T1, human carboxylesterase (CES1) (Homo sapiens, UniProt P23141); experiment: In vitro esterase activity on ester pro-drug Cy5 derivatives; assay type: in vitro ADME; conditions: 0.25 μM CES1, 37° C., 8 hours
T1 sequence (P23141 18-567): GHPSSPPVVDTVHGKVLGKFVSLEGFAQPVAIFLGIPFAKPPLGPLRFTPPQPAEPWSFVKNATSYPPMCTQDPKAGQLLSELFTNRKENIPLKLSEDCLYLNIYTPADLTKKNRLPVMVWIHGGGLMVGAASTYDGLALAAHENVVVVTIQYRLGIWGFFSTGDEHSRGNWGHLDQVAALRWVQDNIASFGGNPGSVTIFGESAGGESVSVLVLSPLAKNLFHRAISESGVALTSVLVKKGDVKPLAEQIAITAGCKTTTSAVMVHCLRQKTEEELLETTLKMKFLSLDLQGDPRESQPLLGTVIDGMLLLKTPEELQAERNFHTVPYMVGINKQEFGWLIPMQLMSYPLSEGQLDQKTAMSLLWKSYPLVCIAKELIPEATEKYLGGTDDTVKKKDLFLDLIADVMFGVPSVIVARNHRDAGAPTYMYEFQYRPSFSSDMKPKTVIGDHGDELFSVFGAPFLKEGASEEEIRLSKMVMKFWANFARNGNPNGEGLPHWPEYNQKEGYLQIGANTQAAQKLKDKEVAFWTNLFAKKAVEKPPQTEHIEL
Procedure: In vitro esterase activity on ester pro-drug Cy5 derivatives of CypD inhibitors. Into PCR tubes, ester compound (6 μM) and either buffer only, CES1 (0.25 μM), or CES2 (0.25 μM) was diluted in 100 mM Tris-HCl buffer, pH 7.4, with a final DMSO concentration of 1%. Samples were maintained on a PCR block at 37° C. for 8 hours. After incubation, samples were diluted with 20 μL acetonitrile and analyzed by LC-MS at Harvard's Center for Mass Spectroscopy. Di-ester, mono-ester, and di-acid abundances were quantified by total ion count of the primary isotope, and the three compounds were summed and each one expressed as a fraction of the total sum.

[2] = tested on: HeLa cells; experiment: Fluorescence microscopy on HeLa cells; assay type: cell-based, human; conditions: Cy5 labeled compound 6 μM
In short: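 HeLa cells in DMEM with 10% FBS, seeded 24 h earlier to ~80% confluence, were stained for 1 h at 37 °C with 6 µM Cy5-labelled compound in HEPES-buffered Krebs-Ringer, pH 7.2. Hoechst 33342 and MitoTracker Green were then added for 15 min. After washing, live cells were imaged in Alexa 488, Alexa 647 and Hoechst channels.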

[3] = molecular target: T2, CypD (Homo sapiens, UniProt P30405); experiment: Chymotrypsin coupled prolyl-isomerase assay; assay type: biochemical
T2 construct: PPIF (UniProtKB Entry P30405: res 45-207); made in house; host or cells: E. coli BL21(DE3)
T2 sequence (P30405 45-207): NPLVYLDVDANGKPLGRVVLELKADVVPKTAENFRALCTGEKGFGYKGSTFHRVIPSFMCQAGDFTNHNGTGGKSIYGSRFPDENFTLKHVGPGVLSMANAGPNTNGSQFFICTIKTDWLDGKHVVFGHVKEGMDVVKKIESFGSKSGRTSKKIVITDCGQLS
Procedure: IC50 values were calculated to be the value at which 50% inhibition was achieved on each compound's non-linear regression fitted curve.

[4] = tested on: A549, HeLa, HEK293T, HepG2, and MEFs; experiment: Cellular esterase activity on ester pro-drug Cy5 derivatives; assay type: in vitro ADME, human and mouse; conditions: 6 μM, 48 hours (36 hours for HepG2)
Procedure: Cellular esterase activity on ester pro-drug Cy5 derivatives of CypD inhibitors. Into 96-well clear, flat-bottom TC-treated plates, cells were seeded in DMEM supplemented with 10% FBS for HEK293T, HeLa, and MEFs, F-12K supplemented with 10% FBS for A549, or MEM supplemented with 10% FBS for HepG2, 24 hours prior at a density where wells were ˜70% confluent at time of experiment. Media was removed and cells were incubated with 100 μL of mixture containing each Cy5-conjugated compound (6 μM) in their respective media at 1% DMSO for 48 hours (36 hours for HepG2) at 37° C. at 5% CO2. Supernatant was removed, and cells were washed 2 times with 100 μL of PBS pH 7.4 (Gibco). Cells were then lysed for 15 minutes with 30 μL of 10 mM Tris-HCl pH 8.0 buffer containing 0.05% SDS. Lysates were diluted with 100 μL acetonitrile and filtered. Lysates were analyzed by LC-MS at Harvard's Center for Mass Spectroscopy. Di-ester, mono-ester, and di-acid abundances were quantified by total ion count of the primary isotope, and the three compounds were summed and each one expressed as a fraction of the total sum.

CypD prolyl-isomerase inhibition (in words) [3]: did not potently inhibit
SMILES: CCOC(=O)C(Cc1ccc(-c2ccc(C[C@H]3NC(=O)[C@@]4(Cc5ccccc5)CCCN(C4)C(=O)/C=C/C(=O)NCC[C@H](C(=O)NCCNC(=O)CCCCCN4\C(=C/C=C/C=C/C5=[N+](C)c6ccccc6C5(C)C)C(C)(C)c5ccccc54)NC(=O)Cc4ccccc4CNC3=O)cc2)cc1)C(=O)OCC [*B52-Et-Cy5]
hydrolysis of ester prodrug by CES1 [1]: hydrolyzed to their active dicarboxylate forms
mitochondrial localization (overlap with Mitotracker Green) [2]: good mitochondrial localization
plasma membrane / mammalian cell permeability [2]: Strong mammalian cell permeability and mitochondrial localization
intracellular conversion to di-acid by endogenous esterases [4]: readily converted to the corresponding di-acid
